Measured values: the NIST ThermoML archive (doi:10.1021/je900716q)
± gives the expanded uncertainty stated by the source.

Columns and labels:
[1] = 101.33 kPa, Liquid, Pycnometric method
[2] = xn = mol fraction of the nth substance listed; conditions: Liquid, measurement of pressure, x2 = 0

C[n+]1ccn(CCO)c1.F[B-](F)(F)F [1-(2-hydroxyethyl)-3-methylimidazolium tetrafluoroborate]
mass density ([1]; 300.71 K): 1384 ± 1 kg/m3 | mass density ([1]; 303.35 K): 1380 ± 1 kg/m3 | mass density ([1]; 304.95 K): 1379 ± 1 kg/m3 | mass density ([1]; 307.31 K): 1376 ± 1 kg/m3 | mass density ([1]; 310.81 K): 1373 ± 1 kg/m3 | mass density ([1]; 314.35 K): 1369 ± 1 kg/m3

C[n+]1ccn(CCO)c1.F[B-](F)(F)F [1-(2-hydroxyethyl)-3-methylimidazolium tetrafluoroborate] + S
binary diffusion coefficient ([2]; 303.15 K): 1.79e-08 m2/s | binary diffusion coefficient ([2]; 313.15 K): 2.15e-08 m2/s | binary diffusion coefficient ([2]; 323.15 K): 2.76e-08 m2/s | binary diffusion coefficient ([2]; 333.15 K): 3.24e-08 m2/s | binary diffusion coefficient ([2]; 343.15 K): 3.8e-08 m2/s | binary diffusion coefficient ([2]; 353.15 K): 4.41e-08 m2/s

C[n+]1ccn(CCO)c1.F[B-](F)(F)F [1-(2-hydroxyethyl)-3-methylimidazolium tetrafluoroborate] + O=C=O
binary diffusion coefficient ([2]; 303.15 K): 1.4e-08 m2/s | binary diffusion coefficient ([2]; 313.15 K): 2.09e-08 m2/s | binary diffusion coefficient ([2]; 323.15 K): 3.94e-08 m2/s | binary diffusion coefficient ([2]; 333.15 K): 4.65e-08 m2/s | binary diffusion coefficient ([2]; 343.15 K): 5.71e-08 m2/s | binary diffusion coefficient ([2]; 353.15 K): 7.16e-08 m2/s
